Laboratory results taken from the RepoRT retention time repository.

Assay: Waters XBridge BEH C18, 150 × 1 mm, 1.7 µm, 30 °C, 0.04 mL/min, estimated dead time 1.9 min; A: 79.7% water + 20% methanol + 0.3% acetic acid; B: 99.7% methanol + 0.3% acetic acid; gradient (min/%B) 0/0 17/58.7 17.2/100 20.2/100
Details: stereoisomer not certain

SMILES | LC retention time [min]
CN1C(=O)CCC1c1cccnc1 (stereo unspecified) | 3.6
CC(N)Cc1ccccc1 (stereo unspecified) | 7.5
COC(=O)C1C2CCC(CC1OC(=O)c1ccccc1)N2 (stereo unspecified) | 12.8
CNC(C)Cc1ccccc1 (stereo unspecified) | 7.9
COc1ccc2c3c1OC1C(O)C=CC4C(C2)NCCC341 (stereo unspecified) | 5.1
CC(=O)OC1C=CC2C3Cc4ccc(O)c5c4C2(CCN3C)C1O5 (stereo unspecified) | 6.4
COc1ccc2c3c1OC1C(=O)CCC4(O)C(C2)N(C)CCC314 (stereo unspecified) | 5.4
CCC(=O)OC(Cc1ccccc1)(c1ccccc1)C(C)CNC (stereo unspecified) | 20.1
CCC(N)Cc1ccc2c(c1)OCO2 (stereo unspecified) | 10.3
COc1ccc2c3c1OC1C(O)CCC4C(C2)N(C)CCC341 (stereo unspecified) | 4.6
CN1C2CC=C(C(=O)O)C1CC2 (stereo unspecified) | 3
Cc1ccccc1-n1c(C)nc2ccccc2c1=O | 20.2
CC(N)C(O)c1ccccc1 (stereo unspecified) | 5.2
COC(=O)C1C(OC(=O)c2ccccc2)CC2CCC1N2C (stereo unspecified) | 11.8
COc1ccc(C(CN(C)C)C2(O)CCCCC2)cc1 (stereo unspecified) | 15.4
c1ccc(C2(N3CCCCC3)CCCCC2)cc1 | 14.7
CN(C)CCC=C1c2ccccc2CSc2ccccc21 | 19.2
CN1C2CCC1C(C(=O)O)C(OC(=O)c1ccccc1)C2 (stereo unspecified) | 10.7
CNC(C)C(=O)c1ccccc1 (stereo unspecified) | 5.6
COC(=O)C1=CCC2CCC1N2C (stereo unspecified) | 3.6
CCOC(=O)C1C(OC(=O)c2ccccc2)CC2CCC1N2C (stereo unspecified) | 13.9
CCN(CC)C(=O)C1C=C2c3cccc4[nH]cc(c34)CC2N(C)C1 (stereo unspecified) | 13.8
CN1CCC23c4c5ccc(O)c4OC2C(=O)CCC3(O)C1C5 (stereo unspecified) | 3.6

SMILES | LC retention time [min]
CNC(C)Cc1ccc2c(c1)OCO2 (stereo unspecified) | 8.3
CCC(=O)C(CC(C)N(C)C)(c1ccccc1)c1ccccc1 (stereo unspecified) | 20.2
O=C1CN=C(c2ccccc2)c2cc([N+](=O)[O-])ccc2N1 | 19.8
c1ccc(CN2CCNCC2)cc1 | 4.3
CC(N)Cc1ccc2c(c1)OCO2 (stereo unspecified) | 8.1
COc1cccc(C2(O)CCCCC2CN(C)C)c1 (stereo unspecified) | 11.4
CCCc1nn(C)c2c(=O)[nH]c(-c3cc(S(=O)(=O)N4CCN(C)CC4)ccc3OCC)nc12 | 18.8
Cn1c(=O)[nH]c2ncn(C)c2c1=O | 6.1
CNC(C)C(O)c1ccccc1 (stereo unspecified) | 5.9
CN1CCC23c4c5ccc(O)c4OC2C(O)C=CC3C1C5 (stereo unspecified) | 3.5
CNCC1CCCCC1(O)c1cccc(OC)c1 (stereo unspecified) | 12.5
CCC(Cc1ccc2c(c1)OCO2)NC (stereo unspecified) | 10.3
Oc1ccc2c3c1OC1C(O)C=CC4C(C2)NCCC341 (stereo unspecified) | 3.5
COc1cc(CCN)cc(OC)c1OC | 7
COc1ccc2c3c1OC1C(O)C=CC4C(C2)N(C)CCC341 (stereo unspecified) | 4.8
CCOP(=O)(Sc1ccccc1)Sc1ccccc1 | 16.7
CN1CCCC1c1cccnc1 (stereo unspecified) | 3.3
COC12CCC3(CC1C(C)(O)C(C)(C)C)C1Cc4ccc(O)c5c4C3(CCN1CC1CC1)C2O5 (stereo unspecified) | 17.3
Cn1c(=O)c2c(ncn2C)n(C)c1=O | 9
Nc1ccc2c(c1)C(c1ccccc1)=NCC(=O)N2 | 6.2
CCNC(C)Cc1ccc2c(c1)OCO2 (stereo unspecified) | 9.4
CC(=O)Oc1ccc2c3c1OC1C(OC(C)=O)C=CC4C(C2)N(C)CCC341 (stereo unspecified) | 11.4
CCC(=O)OC(Cc1ccccc1)(c1ccccc1)C(C)CN(C)C (stereo unspecified) | 19.6
